The values that follow come from ChEMBL document CHEMBL5512666, “Selenization of Small Molecule Drugs: A New Player on the Board” (J Med Chem, 2024).

The subject of series [1] is Candida albicans. The experiment in a line: Antifungal activity against azole-resistant Candida albicans clinical isolate 901 assessed as fungal growth inhibition incubated for 24 hrs by CLSI protocol based broth microdilution method. Format: functional.
Series [2] in a line: Cytotoxicity against human A549 cells assessed as reduction in cell viability incubated for 96 hrs by MTT assay. Format: toxicity, cell-based.
The subject of series [3] is Candida albicans. The experiment in a line: Antifungal activity against azole-resistant Candida albicans clinical isolate 904 assessed as fungal growth inhibition incubated for 24 hrs by CLSI protocol based broth microdilution method. Format: functional.
The subject of series [4] is Candida albicans. The experiment in a line: Antifungal activity against azole-resistant Candida albicans clinical isolate CaR assessed as fungal growth inhibition incubated for 24 hrs by CLSI protocol based broth microdilution method. Format: functional.
The nature of series [5]: Cytotoxicity against human MDA-MB-231 cells assessed as reduction in cell viability incubated for 96 hrs by MTT assay. Format: toxicity, cell-based.
Series [6] concerns Candida albicans. Description: Antifungal activity against azole-resistant Candida albicans clinical isolate 17 assessed as fungal growth inhibition incubated for 24 hrs by CLSI protocol based broth microdilution method. Format: functional.
Series [7] concerns Candida albicans. Description: Antifungal activity against azole-resistant Candida albicans clinical isolate 632 assessed as fungal growth inhibition incubated for 24 hrs by CLSI protocol based broth microdilution method. Format: functional.
Series [8] in a line: Cytotoxicity against human SGC cells assessed as reduction in cell viability incubated for 96 hrs by MTT assay. Format: toxicity, cell-based.
Series [9] in a line: Antioxidant activity assessed as inhibition of peroxynitrite mediated L-tyrosine nitration in sodium phosphate buffer at pH 7.5 incubated for 7 mins by RP-HPLC analysis. Format: functional.
The next series deals with HEK-293T. The experiment in a line: Antiproliferative activity against HEK293T. Format: functional, cell-based. The note with it: Homo sapiens.
Series [10] in a line: Antiproliferative activity against human HEY A8 cells. Format: functional, cell-based.
The test system of a further series is ES-2. Description: Antiproliferative activity against human ES2 cells. Format: functional, cell-based.
The test system of a further series is OVCAR-3. Description: Antiproliferative activity against human OVCAR-3 cells. Format: functional, cell-based.
Series [11] is described as follows: Antiproliferative activity against human OVCAR-10 cells. Format: functional, cell-based.
Series [12] is described as follows: Antioxidant activity assessed as reduction in peroxynitrite mediated L-tyrosine nitration by measuring remaining activity relative to control. Format: functional. Set-up: concentration or dose not given beside the values.
The subject of the next series is MHCC97H. The experiment in a line: Antiproliferative activity against human MHCC97H cells assessed as reduction in cell viability incubated for 48 hrs by MTT assay. Format: functional, cell-based.
Series [13] in a line: Inhibition of TrxR (unknown origin) expressed in MHCC97H cells incubated for 24 hrs by colorimetric assay. Format: cell-based, Homo sapiens.
The subject of the next series is Aspergillus fumigatus. Description: Antifungal activity against Aspergillus fumigatus CGMCC 3.7795. Format: functional.
Series [14] deals with Candida albicans. The experiment in a line: Antifungal activity against Candida albicans SC5314. Format: functional.
For a further series, the system named is Pichia kudriavzevii. Description: Antifungal activity against Candida krusei AS 2.1045. Format: functional.
Another series deals with Candida parapsilosis. Description: Antifungal activity against Candida parapsilosis 22019. Format: functional. The note with it: Lodderomyces parapsilosis.
The test system of another series is Candida tropicalis. The experiment in a line: Antifungal activity against Candida tropicalis CGMCC 2.3739. Format: functional.
For another series, the system named is Cryptococcus neoformans. Description: Antifungal activity against Cryptococcus neoformans CGMCC 2.3161. Format: functional.
For series [15], the system named is Candida albicans. Description: Antifungal activity against Candida albicans CPCC 400616. Format: functional.
The next series relates to Nakaseomyces glabratus. The experiment in a line: Antifungal activity against Candida glabrata. Format: functional.

Converted amounts (≈) assume the structure as drawn.

Turning to `Clc1ccc(-c2nn[se]c2-n2ccnc2)c(Cl)c1`, the MIC amounted to 32 µg/mL (≈ 93 µM) in the series with Candida albicans [1]; 16 µg/mL (≈ 46.5 µM) in the series with Candida albicans [3]; 1 µg/mL (≈ 2.91 µM) in the series on Candida albicans [4]; 16 µg/mL (≈ 46.5 µM) with Candida albicans [6]; 16 µg/mL (≈ 46.5 µM) in the series on Candida albicans [7]. The figures for the IC50 at 96 h in [2], in series [5] and in series [8] were 16.2 µg/mL (≈ 47 µM), 14.7 µg/mL (≈ 42.7 µM) and 14.6 µg/mL (≈ 42.5 µM), respectively.
With `CCCc1cc(=O)[nH]c(=S)[nH]1` [PROPYLTHIOURACIL], the IC50 in [9] was 95 µM.
As to `O=C1N[C@H]2[C@H](CS[C@H]2CCCCC(=O)[Se]Cc2ccccc2)N1`, the IC50 was found to be 6.57 µM in the series with HEK-293T; 17.3 µM in [10]; 16.2 µM in the series with ES-2; 36.9 µM in the series with OVCAR-3; 47.2 µM in series [11].
`Cn1cc[nH]c1=[Se]`: the Activity in series [12] was 66%. Moreover, the IC50 in [9] was 49.1 µM.
Consider `C[Se]C(=O)CCCC[C@@H]1SC[C@@H]2NC(=O)N[C@@H]21`, for which the IC50 in the series on HEK-293T came to 31.5 µM; in [10] it was 20.2 µM; in the series on ES-2, 9.84 µM; with OVCAR-3 it was 22.3 µM; in [11] it was 24.9 µM.
As to `c1ccc(-c2nn[se]c2-n2cncn2)cc1`, the MIC in the series with Candida albicans [1] stood at 32 µg/mL (≈ 116 µM); with Candida albicans [3], 32 µg/mL (≈ 116 µM); in the series with Candida albicans [4], 2 µg/mL (≈ 7.24 µM); in the series with Candida albicans [6], 16 µg/mL (≈ 57.9 µM); in the series with Candida albicans [7], 32 µg/mL (≈ 116 µM). Further, the IC50 at 96 h was 20.5 µg/mL (≈ 74.3 µM) in series [2], 80.7 µg/mL (≈ 292 µM) in series [5] and 30.8 µg/mL (≈ 111 µM) in series [8].
`Cn1ccn(C)c1=[Se]`: the Activity in [12] was 66.5%. The IC50 in [9] is 12.2 µM.
With `COc1cc2c(c(OC)c1OC)-c1ccc(OC)c(=O)cc1[C@@H](NC(C)=O)CC2` [COLCHICINE], the IC50 at 96 h in [8] came out at 0.045 µg/mL (≈ 0.113 µM).
For the compound `CN(C)CCC[Se]c1cnc(-c2cccc(Cn3nc(-c4cccc(C#N)c4)ccc3=O)c2)nc1`, the IC50 in the series on MHCC97H was determined as 0.01 µM.
Turning to `COc1cccc(Cn2ccn(C)c2=[Se])c1`, the IC50 in series [9] was determined as 7.8 µM.
Turning to `C=C1N(C)C=CN1CCCCn1ccn(C)c1=[Se]`, in series [12], the Activity amounted to 56%.
Consider `N#Cc1cccc(-c2ccc(=O)n(Cc3cccc(-c4ncc([Se]CCCN5CCCCC5)cn4)c3)n2)c1`, for which the results for the IC50 (with MHCC97H; in series [13]) were 0.038 µM and 0.654 µM, respectively.
On to `O=C(O)CCCC[C@@H]1SC[C@@H]2NC(=O)N[C@@H]21` [BIOTIN], for which the IC50 (in the series with HEK-293T; in [10]; with ES-2; in the series with OVCAR-3; in series [11]) was more than 100 µM each time.
With `CN1CCC(COc2cnc(-c3cccc(Cn4nc(-c5cccc(C#N)c5)ccc4=O)c3)nc2)CC1` [TEPOTINIB], the IC50 in the series on MHCC97H was 0.016 µM; in series [13], more than 10 µM.
For the compound `Cc1cccc(C)c1[Se]C(Cn1ccnc1)c1ccc(Cl)cc1` (stereo unspecified), the MIC against Aspergillus fumigatus came out at 1 µg/mL (≈ 2.57 µM); in the series with Candida albicans [14] it was 0.03 µg/mL (≈ 0.077 µM); against Pichia kudriavzevii, 0.03 µg/mL (≈ 0.077 µM); with Candida parapsilosis, 0.03 µg/mL (≈ 0.077 µM); in the series with Candida tropicalis, 0.06 µg/mL (≈ 0.154 µM); against Cryptococcus neoformans, 0.13 µg/mL (≈ 0.334 µM). Besides, the values for the MIC in the series on Candida albicans [15] and in the series with Nakaseomyces glabratus were 0.03 µg/mL (≈ 0.077 µM) and 0.13 µg/mL (≈ 0.334 µM), respectively.
Regarding `C=C1N(C)C=CN1CCCn1ccn(C)c1=[Se]`, the Activity in [12] was 29%.
Regarding `N#C[Se]CCCOC(=O)CCCC[C@@H]1SC[C@@H]2NC(=O)N[C@@H]21`, the IC50 is more than 100 µM with HEK-293T; 22.3 µM in series [10]; 91.6 µM in the series on ES-2; more than 100 µM in the series with OVCAR-3; more than 100 µM in series [11].
With `C=C1N(C)C=CN1CCCCCn1ccn(C)c1=[Se]`, the Activity in series [12] worked out at 45%.
On to `Cn1ccnc1S` [METHIMAZOLE], for which the Activity in series [12] was found to be 32.5%. Also, in [9], the IC50 turned out to be 23.9 µM.
